Assay results: patent US8946266B2, “Substituted triazole and imidazole derivatives as gamma secretase modulators” (Janssen Pharmaceuticals, Inc., priority 2009, dated 2015)

What was measured:
Aβ42 [1] = experiment: In vivo efficacy, Method 1: brain soluble Aβ42 lowering 4 h after a single oral dose, ELISA (Table 4a); design: species or system mouse; settings: dose 30 mg/kg oral dosing
Description: To determine whether acute administration of an Aβ42 lowering agent would reduce Aβ42 levels in vivo, non-transgenic rodents, e.g. mice or rats were used. Alternatively, two to three month old Tg2576 mice expressing APP695 containing the “Swedish” variant can be used or a transgenic mouse model developed by Dr. Fred Van Leuven (K.U. Leuven, Belgium) and co-workers, with neuron-specific expression of a clinical mutant of the human amyloid precursor protein [V717I] (Moechars et al., 1999 J. Biol. Chem. 274, 6483). Young transgenic mice have high levels of Aβ in the brain but no detectable Aβ deposition. At approximately 6-8 months of age, the transgenic mice start to display spontaneous, progressive accumulation of β-amyloid (Aβ) in the brain, eventually resulting in amyloid plaques within the subiculum, hippocampus and cortex. Animals treated with the Aβ42 lowering agent were examined and compared to those untreated or treated with vehicle and brain levels of soluble Aβ42 and total Aβ would be quantitated by standard techniques, for example, using ELISA. Treatment periods varied from hours (h) to days and were adjusted based on the results of the Aβ42 lowering once a time course of onset of effect could be established.
A typical protocol for measuring Aβ42 lowering in vivo is shown but it is only one of many variations that could be used to optimize the levels of detectable Aβ. For example, Aβ42 lowering compounds were formulated in 20% of Captisol® (a sulfobutyl ether of β-cyclodextrin) in water or 20% hydroxypropyl cyclodextrin. The Aβ42 lowering agents were administered as a single oral dose or by any acceptable route of administration to overnight fasted animals. After 4 h, the animals were sacrificed and Aβ42 levels were analysed.
Blood was collected by decapitation and exsanguinations in EDTA-treated collection tubes. Blood was centrifuged at 1900 g for 10 minutes (min) at 4° C. and the plasma recovered and flash frozen for later analysis. The brain was removed from the cranium and hindbrain. The cerebellum was removed and the left and right hemisphere were separated. The left hemisphere was stored at −18° C. for quantitative analysis of test compound levels. The right hemisphere was rinsed with phosphate-buffered saline (PBS) buffer and immediately frozen on dry ice and stored at −80° C. until homogenization for biochemical assays.
Mouse brains were resuspended in 10 volumes of 0.4% DEA (diethylamine)/50 mM NaCl pH 10 (for non-transgenic animals) or 0.1% 3-[(3-cholamidopropyl)-dimethyl-ammonio]-1-propanesulfonate (CHAPS) in tris buffered saline (TBS) (for transgenic animals) containing protease inhibitors (Roche-11873580001 or 04693159001) per gram of tissue, e.g. for 0.158 g brain, add 1.58 ml of 0.4% DEA. All samples were sonicated for 30 seconds on ice at 20% power output (pulse mode). Homogenates were centrifuged at 221.300×g for 50 min. The resulting high speed supernatants were then transferred to fresh tubes and were optionally further purified before the next step. A portion of the supernatant was neutralized with 10% 0.5 M Tris-HCl and this was used to quantify Aβtotal.
The obtained supernatants were purified with Water Oasis HLB reverse phase columns (Waters Corp., Milford, Mass.) to remove non-specific immunoreactive material from the brain lysates prior subsequent Aβ detection. Using a vacuum manifold, all solutions were passed through the columns at a rate of approximately 1 ml per min, so the vacuum pressure was adjusted accordingly throughout the procedure. Columns were preconditioned with 1 ml of 100% MeOH, before equilibration with 1 ml of H2O, Non-neutralized brain lysates were loaded onto the columns. The loaded samples were then washed twice with the first wash performed with 1 ml of 5% MeOH, and the second wash with 1 ml of 30% MeOH. Finally, the Aβ was eluted from the columns and into 100×30 mm glass tubes, with a solution of 90% MeOH with 2% NH4OH. […]

Aβtotal = experiment: In vivo efficacy, Method 2: brain soluble Aβtotal lowering 4 h after a single oral dose, ELISA (Table 4b); design: species or system mouse; settings: dose 30 mg/kg oral dosing
Summary of the method: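 Non-transgenic mice or rats, fasted overnight, received a single oral dose (30 mg/kg) in 20% Captisol or 20% hydroxypropyl β-cyclodextrin, or vehicle, and were sacrificed after 4 h. Right brain hemisphere was extracted in 0.4% DEA/50 mM NaCl, and soluble Aβtotal in the high-speed supernatant was measured by sandwich ELISA (JRF/rAβ/2 capture, biotinylated 4G8 detection, fluorogenic read-out).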

Aβ42 [2] = experiment: In vivo efficacy, Method 2: brain soluble Aβ42 lowering 4 h after a single oral dose, ELISA (Table 4b); design: species or system mouse; settings: dose 30 mg/kg oral dosing
Summary of the method: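 Overnight-fasted non-transgenic rodents got a single oral dose of 30 mg/kg in 20% Captisol or 20% hydroxypropyl β-cyclodextrin and were killed 4 h later. Right-hemisphere soluble fraction (0.4% DEA/50 mM NaCl extract, neutralised) was assayed for Aβ42 by sandwich ELISA with fluorogenic read-out, compared with untreated animals.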

Structure (SMILES)	Aβ42 (% Ctrl) _Mean (Aβ42 [1]) [% Ctrl]	melting point [°C]	Aβtotal (% Ctrl) _Mean (Aβtotal) [% Ctrl]	Aβ42 (% Ctrl) _Mean (Aβ42 [2]) [% Ctrl]
COc1cc(-c2nc(C)c(-c3ccccc3)[nH]2)ccc1-n1cnc(C)c1 [Compound 11]	4			
COc1cc(-c2nc(-c3ccccc3)n(C)n2)ccc1-n1cnc(C)c1 [Compound 9]	24	115.8		
COc1cc(-c2nc(Nc3ccc(F)cc3C(F)(F)F)n(C)n2)ccc1-n1cnc(C)c1 [Compound 15]	42		−5	37
COc1cc(-c2nc(Nc3cccc(C(F)(F)F)c3)n(C)n2)ccc1-n1cnc(C)c1 [Compound 146]	27		2	17
